Literature values, collected in patent US9151747B1, “Sucralose antibody and immunoassay” (Mercyhurst University, priority 2013, dated 2015).

How the values were obtained:
[1] = background statement
[2] = background statement; remark: listed apart in the source

breakdown by the human body [1]: minimal breakdown
Compound: OC[C@H]1O[C@H](O[C@]2(CCl)O[C@H](CCl)[C@@H](O)[C@@H]2O)[C@H](O)[C@@H](O)[C@H]1Cl [Sucralose, sucralose]
sweetness relative to table sugar [2]: 600 times
